Reference: patent US6461997B1, “Triazole sulfones having herbicidal activity” (Monsanto Technology LLC, priority 1999, dated 2002)

Assays:
[1] = tested on: CHEAL (common lambsquarters); experiment: Pre-emergence herbicidal activity, warm season; assay type: in vivo, Chenopodium album; conditions: GR80 = lowest tested rate (300, 100, 30, 10 g/ha) with 80% or greater inhibition; approx. 14 days after treating; 30/21° C.
How it was run: (§1)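 Seeds sown in sterilised fertilised topsoil received surface-applied compound in 50:50 acetone/water, typically at 300, 100, 30 and 10 g/ha, then greenhouse-grown at 30/21° C (warm-season species) or 18/13° C (cool-season species). Percent inhibition versus untreated plants was scored at about 14 days, giving GR80; an asterisk marks activity short of 80% at the top rate.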

CONAR (field bindweed) = experiment: Pre-emergence herbicidal activity, warm season; assay type: in vivo, Convolvulus arvensis; conditions: GR80 = lowest tested rate (300, 100, 30, 10 g/ha) with 80% or greater inhibition; approx. 14 days after treating; 30/21° C.
Protocol: (§2) Tables 5 to 8 summarize results of tests conducted as described below to determine the pre-emergence herbicidal activity, in the form of a GR80 value, of illustrative compounds of this invention. […] Compounds of the invention were typically applied at rates of 300, 100, 30, and 10 g/ha. Where herbicidal activity was evident but 80% inhibition was not achieved at the highest rate tested, an asterisk (*) is shown in the following tables.
(§3) The pre-emergence tests were conducted by the following procedure. Topsoil was sieved to pass through a 1.27 cm screen. Fertilizer was added to the topsoil and the mixture was then sterilized by heating. The topsoil mixture was placed in a pot and compacted to a depth of 1.0 to 1.25 cm from the top of the pot. Seeds of each of several monocotyledonous and dicotyledonous annual plant species were placed on top of the soil. Additional soil was subsequently placed over the seeds to level-fill the pot. A known amount of each test compound dissolved or suspended in an appropriate organic solvent was diluted with a 50:50 mix of acetone and water and applied to the surface of the soil. After treatment the plants were placed in a greenhouse where they received 0.64 cm of overhead irrigation. All subsequent watering consisted of a light overhead mist and/or subirrigation as needed for germination and growth. Tables 5 and 6 below relate to warm season plant species which were placed after pre-emergence treatment in a greenhouse with a 30/21° C. day/night temperature regime. Tables 7 and 8 below relates to cool season plant species placed after pre-emergence treatment in a greenhouse or growth chamber with an 18/13° C. day/night temperature regime.
(§4) Approximately 14 days after planting and treating, the plants were observed and herbicidal efficacy recorded as percent inhibition by comparison with untreated plants.
(§5) The plant species usually regarded as weeds which were utilized in the tests are identified in the tables below according to the following legend, in which “d” indicates a dicotyledonous species and “m” a monocotyledonous species. All monocotyledonous species included in the tests herein are grasses.

POROL (common purslane) = experiment: Pre-emergence herbicidal activity, warm season; assay type: in vivo, Portulaca oleracea; conditions: GR80 = lowest tested rate (300, 100, 30, 10 g/ha) with 80% or greater inhibition; approx. 14 days after treating; 30/21° C.
How it was run: as §1

ECHCG (barnyardgrass) = experiment: Pre-emergence herbicidal activity, warm season; assay type: in vivo, Echinochloa crus-galli; conditions: GR80 = lowest tested rate (300, 100, 30, 10 g/ha) with 80% or greater inhibition; approx. 14 days after treating; 30/21° C.
How it was run: as §1

[2] = tested on: PANMI (wild proso millet); experiment: Pre-emergence herbicidal activity, warm season; assay type: in vivo, Panicum miliaceum; conditions: GR80 = lowest tested rate (300, 100, 30, 10 g/ha) with 80% or greater inhibition; approx. 14 days after treating; 30/21° C.
How it was run: (§6)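 Seeds were sown in sterilized, fertilized topsoil, covered, and the soil surface was sprayed with compound in 50:50 acetone/water at 300, 100, 30 and 10 g/ha. Pots were held at 30/21 °C day/night (PANMI, DIGSA) or 18/13 °C (ALOMY, POLCO). GR80 came from percent inhibition versus untreated plants at about 14 days.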

[3] = tested on: SORHA (johnsongrass (seedling)); experiment: Pre-emergence herbicidal activity, warm season; assay type: in vivo, Sorghum halepense; conditions: GR80 = lowest tested rate (300, 100, 30, 10 g/ha) with 80% or greater inhibition; approx. 14 days after treating; 30/21° C.
How it was run: as §1

SETFA (giant foxtail) = experiment: Pre-emergence herbicidal activity, warm season; assay type: in vivo, Setaria faberi; conditions: GR80 = lowest tested rate (300, 100, 30, 10 g/ha) with 80% or greater inhibition; approx. 14 days after treating; 30/21° C.
How it was run: as §1

PANDI (fall panicum) = experiment: Pre-emergence herbicidal activity, warm season; assay type: in vivo, Panicum dichotomiflorum; conditions: GR80 = lowest tested rate (300, 100, 30, 10 g/ha) with 80% or greater inhibition; approx. 14 days after treating; 30/21° C.
How it was run: as §1

SORVU (shattercane) = experiment: Pre-emergence herbicidal activity, warm season; assay type: in vivo, Sorghum vulgare; conditions: GR80 = lowest tested rate (300, 100, 30, 10 g/ha) with 80% or greater inhibition; approx. 14 days after treating; 30/21° C.
How it was run: as §1

[4] = tested on: BRAPP (broadleaf signalgrass); experiment: Pre-emergence herbicidal activity, warm season; assay type: in vivo, Brachiaria platyphylla; conditions: GR80 = lowest tested rate (300, 100, 30, 10 g/ha) with 80% or greater inhibition; approx. 14 days after treating; 30/21° C.
How it was run: as §1

[5] = tested on: GALAP (catchweed bedstraw); experiment: Pre-emergence herbicidal activity, cool season; assay type: in vivo, Galium aparine; conditions: lowest tested rate with 80% or greater inhibition; rates 300, 100, 30, 10 g/ha; about 14 days
How it was run: as §1

POLCO (wild buckwheat) = experiment: Pre-emergence herbicidal activity, cool season; assay type: in vivo, Polygonum convolvulus; conditions: lowest tested rate with 80% or greater inhibition; rates 300, 100, 30, 10 g/ha; about 14 days
How it was run: as §6

SINAR (wild mustard) = experiment: Pre-emergence herbicidal activity, cool season; assay type: in vivo, Sinapis arvensis; conditions: lowest tested rate with 80% or greater inhibition; rates 300, 100, 30, 10 g/ha; about 14 days
How it was run: as §1

[6] = tested on: VERPE (creeping speedwell); experiment: Pre-emergence herbicidal activity, cool season; assay type: in vivo, Veronica persicaria; conditions: lowest tested rate with 80% or greater inhibition; rates 300, 100, 30, 10 g/ha; about 14 days
How it was run: as §1

SASKR (russian thistle) = experiment: Pre-emergence herbicidal activity, cool season; assay type: in vivo, Salsola kali; conditions: lowest tested rate with 80% or greater inhibition; rates 300, 100, 30, 10 g/ha; about 14 days
How it was run: as §1

STEME (common chickweed) = experiment: Pre-emergence herbicidal activity, cool season; assay type: in vivo, Stellaria media; conditions: lowest tested rate with 80% or greater inhibition; rates 300, 100, 30, 10 g/ha; about 14 days
How it was run: as §1

[7] = tested on: LAMPU (purple deadnettle); experiment: Pre-emergence herbicidal activity, cool season; assay type: in vivo, Lamium purpureum; conditions: lowest tested rate with 80% or greater inhibition; rates 300, 100, 30, 10 g/ha; about 14 days
How it was run: as §1

SETVI (green foxtail) = experiment: Pre-emergence herbicidal activity, cool season; assay type: in vivo, Setaria viridis; conditions: GR80 = lowest tested rate (300, 100, 30, 10 g/ha) with 80% or greater inhibition; approx. 14 days after treating; 18/13° C.
How it was run: as §1

AVEFA (wild oat) = experiment: Pre-emergence herbicidal activity, cool season; assay type: in vivo, Avena fatua; conditions: GR80 = lowest tested rate (300, 100, 30, 10 g/ha) with 80% or greater inhibition; approx. 14 days after treating; 18/13° C.
Protocol: as §2, §3, §4, §5

[8] = tested on: AGSST (creeping bentgrass); experiment: Pre-emergence herbicidal activity, cool season; assay type: in vivo, Agrostis stolonifera; conditions: GR80 = lowest tested rate (300, 100, 30, 10 g/ha) with 80% or greater inhibition; approx. 14 days after treating; 18/13° C.
How it was run: as §1

SOLNI (black nightshade) = experiment: Pre-emergence herbicidal activity, warm season; assay type: in vivo, Solanum nigrum; conditions: GR80 = lowest tested rate (300, 100, 30, 10 g/ha) with 80% or greater inhibition; approx. 14 days after treating; 30/21° C.
How it was run: as §1

ALOMY (blackgrass) = experiment: Pre-emergence herbicidal activity, cool season; assay type: in vivo, Alopecurus myosuroides; conditions: GR80 = lowest tested rate (300, 100, 30, 10 g/ha) with 80% or greater inhibition; approx. 14 days after treating; 18/13° C.
How it was run: as §6

LOLMG (annual ryegrass) = experiment: Pre-emergence herbicidal activity, cool season; assay type: in vivo, Lolium multiflorum; conditions: GR80 = lowest tested rate (300, 100, 30, 10 g/ha) with 80% or greater inhibition; approx. 14 days after treating; 18/13° C.
How it was run: as §1

BROTE (downy brome) = experiment: Pre-emergence herbicidal activity, cool season; assay type: in vivo, Bromus tectorum; conditions: GR80 = lowest tested rate (300, 100, 30, 10 g/ha) with 80% or greater inhibition; approx. 14 days after treating; 18/13° C.
Protocol: as §2, §3, §4, §5

[9] = tested on: AGRRE (quackgrass (seedling)); experiment: Pre-emergence herbicidal activity, cool season; assay type: in vivo, Elymus repens; conditions: GR80 = lowest tested rate (300, 100, 30, 10 g/ha) with 80% or greater inhibition; approx. 14 days after treating; 18/13° C.
Protocol: as §2, §3, §4, §5

CCSC(F)(F)S(=O)(=O)c1ncn(C(=O)N(C)C)n1 [Example 49]
Pre-emergence activity (GR80) CHEAL [1]: 300 g/ha | Pre-emergence activity (GR80) CONAR (CONAR (field bindweed)): 300 g/ha | Pre-emergence activity (GR80) POROL (POROL (common purslane)): 300 g/ha | Pre-emergence activity (GR80) ECHCG (ECHCG (barnyardgrass)): 300 g/ha | Pre-emergence activity (GR80) PANMI [2]: 300 g/ha | Pre-emergence activity (GR80) SORHA [3]: 300 g/ha | Pre-emergence activity (GR80) SETFA (SETFA (giant foxtail)): 300 g/ha | Pre-emergence activity (GR80) PANDI (PANDI (fall panicum)): 300 g/ha | Pre-emergence activity (GR80) SORVU (SORVU (shattercane)): 300 g/ha | Pre-emergence activity (GR80) BRAPP [4]: 300 g/ha | Pre-emergence activity GR80, GALAP [5]: 300 g/ha | Pre-emergence activity GR80, POLCO (POLCO (wild buckwheat)): [empty] | Pre-emergence activity GR80, SINAR (SINAR (wild mustard)): 300 g/ha | Pre-emergence activity GR80, VERPE [6]: 300 g/ha | Pre-emergence activity GR80, SASKR (SASKR (russian thistle)): [empty] | Pre-emergence activity GR80, STEME (STEME (common chickweed)): 300 g/ha | Pre-emergence activity GR80, LAMPU [7]: 300 g/ha | Pre-emergence activity (GR80) SETVI (SETVI (green foxtail)): 300 g/ha | Pre-emergence activity (GR80) AVEFA (AVEFA (wild oat)): 300 g/ha | Pre-emergence activity (GR80) AGSST [8]: 100 g/ha

CCSC(F)(F)S(=O)(=O)c1ncn(C(=O)N(C)CCOC)n1 [Example 52]
Pre-emergence activity (GR80) SOLNI (SOLNI (black nightshade)): 300 g/ha | Pre-emergence activity (GR80) ECHCG (ECHCG (barnyardgrass)): 300 g/ha | Pre-emergence activity (GR80) PANMI [2]: 100 g/ha | Pre-emergence activity (GR80) SETFA (SETFA (giant foxtail)): 300 g/ha | Pre-emergence activity (GR80) PANDI (PANDI (fall panicum)): 30 g/ha | Pre-emergence activity GR80, GALAP [5]: [empty] | Pre-emergence activity GR80, POLCO (POLCO (wild buckwheat)): [empty] | Pre-emergence activity GR80, SINAR (SINAR (wild mustard)): 300 g/ha | Pre-emergence activity GR80, VERPE [6]: 30 g/ha | Pre-emergence activity GR80, SASKR (SASKR (russian thistle)): 100 g/ha | Pre-emergence activity GR80, STEME (STEME (common chickweed)): [empty] | Pre-emergence activity GR80, LAMPU [7]: [empty] | Pre-emergence activity (GR80) ALOMY (ALOMY (blackgrass)): 300 g/ha | Pre-emergence activity (GR80) SETVI (SETVI (green foxtail)): 300 g/ha | Pre-emergence activity (GR80) LOLMG (LOLMG (annual ryegrass)): 300 g/ha | Pre-emergence activity (GR80) BROTE (BROTE (downy brome)): 300 g/ha | Pre-emergence activity (GR80) AGSST [8]: 300 g/ha | Pre-emergence activity (GR80) AGRRE [9]: 100 g/ha
